PubChem BioAssay (NCI)
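Protocol summary: plate cells (96-well), add compound at 5 concentrations, incubate 48 h, interpolate endpoints linearly. Abbreviation: GI50, concentration required for 50% inhibition of growth. TGI is the concentration that stops growth completely.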

Key:
Experiment in all cases: NCI-60 cell line screen, 48 h
SF-268 CNS = test system: SF-268 CNS
RPMI-8226 leukemia = test system: RPMI-8226 leukemia
HL-60(TB) leukemia = test system: HL-60(TB) leukemia
A549 NSCLC = test system: A549 NSCLC
SNB-19 CNS = test system: SNB-19 CNS
MDA-MB-435 = test system: MDA-MB-435
KM12 colon = test system: KM12 colon
SK-MEL-28 melanoma = test system: SK-MEL-28 melanoma
A498 renal = test system: A498 renal
SN12C renal = test system: SN12C renal

| Structure (SMILES) | GI50 (SF-268 CNS) [µM] | TGI (SF-268 CNS) [µM] | GI50 (RPMI-8226 leukemia) [µM] | TGI (RPMI-8226 leukemia) [µM] | GI50 (HL-60(TB) leukemia) [µM] | TGI (HL-60(TB) leukemia) [µM] | GI50 (A549 NSCLC) [µM] | TGI (A549 NSCLC) [µM] | GI50 (SNB-19 CNS) [µM] | TGI (SNB-19 CNS) [µM] | GI50 (MDA-MB-435) [µM] | TGI (MDA-MB-435) [µM] | GI50 (KM12 colon) [µM] | TGI (KM12 colon) [µM] | GI50 (SK-MEL-28 melanoma) [µM] | TGI (SK-MEL-28 melanoma) [µM] | GI50 (A498 renal) [µM] | TGI (A498 renal) [µM] | GI50 (SN12C renal) [µM] | TGI (SN12C renal) [µM] |
| --- | --- | --- | --- | --- | --- | --- | --- | --- | --- | --- | --- | --- | --- | --- | --- | --- | --- | --- | --- | --- |
| CCCN(CCC)c1ccc(CO)c(C)c1 | 63.7 | > 100 | 18.4 | 50 | 21.6 | 48.7 | 83.3 | > 100 | > 100 | > 100 | 76.8 | > 100 | > 100 | > 100 | > 100 | > 100 | 1.09 | 3.64 | 79.4 | > 100 |
| CN1C(=O)CNC(=O)[C@H](NC(=O)c2nc3ccccc3cc2O)CSSC[C@H]1C(=O)NCCc1nc2ccccc2cc1O | 4.19 | 37.9 | 14.5 | 62.3 | 1.22 | 5.1 | 32.5 | > 100 | 33.5 | > 100 | 2.5 | 35.8 | 0.96 | 47.7 | 8.07 | 35 | > 100 | > 100 | 22.4 | > 63.4 |
| CC(C)(C)c1ccc([I+]c2ccc(C(C)(C)C)cc2)cc1 | 1.93 | 7.53 | 0.389 | 1.99 | 0.55 | 2.46 | 2.43 | 6.65 | 1.11 | 3.24 | 0.948 | 3.01 | 1.04 | 2.83 | 1.11 | 3.14 | 1.37 | 3.81 | 1.99 | 5.21 |
| CC(=O)/C=C/C1=C(c2cc3ccccc3s2)c2ccccc2CC1 | 27.1 | > 100 | 3.86 | 24.4 | 16.4 | 98.2 | 33 | > 100 | 50.7 | > 100 | 23 | 52.5 | 18.5 | 42.2 | 20.9 | 54.1 | 28.9 | 58.1 | 36.5 | > 100 |
| O=C(Nc1ccc(Br)cc1)Nc1n[nH]c2ccccc12 | > 46 | > 100 | – | > 100 | 18.7 | > 90 | > 62.7 | > 100 | > 100 | > 100 | > 100 | > 100 | > 76.4 | > 100 | > 100 | > 100 | > 100 | > 100 | > 100 | > 100 |
| O=Cc1ccc(-c2ccc(-c3ccc(C=O)s3)o2)s1 | – | > 100 | – | > 100 | – | > 100 | – | > 100 | – | > 100 | – | > 100 | – | > 100 | – | > 100 | – | 0.732 | – | > 100 |
| O=C(Nc1cc(C(F)(F)F)ccc1F)Nc1n[nH]c2ccccc12 | > 100 | > 100 | > 100 | > 100 | > 100 | > 100 | > 100 | > 100 | > 100 | > 100 | > 100 | > 100 | > 100 | > 100 | > 100 | > 100 | > 100 | > 100 | > 100 | > 100 |
| COc1cc(OC)c2c(=O)c(O)c(-c3ccc(OC)c(OC)c3)oc2c1 | – | > 31.6 | – | > 31.6 | – | 44.3 | – | > 100 | – | > 100 | – | > 31.6 | – | > 100 | – | > 31.6 | – | > 100 | – | > 100 |
| CC(ONC(=O)c1cc(C(F)(F)F)cc(C(F)(F)F)c1)C(=O)Nc1ccc(Cl)cc1 (stereo not given) | 5.2 | > 67.9 | 2.27 | 6.98 | 3.86 | 28.3 | 4.68 | > 41.3 | 5.64 | > 100 | 4.39 | 29.7 | 5 | 29.4 | 5.4 | 37.4 | 3.35 | 14.5 | 5.44 | > 100 |
| Cn1c(=O)cc2c3c(c(NCCCO)ccc31)C(=O)c1ccccc1-2 | 6.75 | > 100 | 2.89 | > 100 | 2.98 | > 100 | 3.48 | > 100 | 4.46 | > 100 | 3.47 | > 100 | 6.34 | > 100 | 38 | > 100 | 1.77 | > 100 | 3.45 | > 100 |
| COc1ccc(C(O)CNC(=O)c2ccccc2)cc1 (stereo not given) | – | > 100 | – | > 100 | – | > 100 | – | > 100 | – | > 100 | – | > 100 | – | > 100 | – | > 100 | – | > 100 | – | > 100 |
| C#C[C@]1(O)CC[C@H]2[C@@H]3CC=C4c5sc(N=C(N)N)nc5CC[C@]4(C)[C@H]3CC[C@@]21C | 0.959 | 2.75 | 0.153 | 0.864 | 0.425 | 1.92 | 0.865 | 2.72 | 1.11 | 2.41 | 0.7 | 2.01 | 1.1 | 2.55 | 0.4 | 1.61 | 0.274 | 1.02 | 1.31 | 2.72 |
| COc1cc(CSc2nc3ccc(C)cc3c(=O)n2Cc2ccccc2)cc(OC)c1OC | 5.01 | > 100 | 2.96 | > 100 | 3.3 | > 100 | 1.72 | > 100 | 5.93 | > 100 | 0.337 | 2.62 | 1.08 | > 100 | 2.99 | 96.8 | 2.14 | 12.4 | 6.53 | > 100 |
| CC(C)=CCc1c(O)cc(/C=C/c2cc(O)c3c(c2)C[C@@H]2C(C)(C)[C@H](O)[C@H](O)C[C@@]2(C)O3)cc1O | 1.11 | > 7.76 | < 0.001 | – | < 0.001 | 3.05 | 0.249 | > 10 | 1.46 | > 10 | 0.662 | 4.22 | 0.59 | 4.11 | 1.58 | > 5.26 | 1.22 | 9.57 | 2.81 | > 10 |
| O=C1Nc2ccccc2C1Cc1ccccc1 (stereo not given) | – | > 100 | – | > 100 | – | > 100 | – | > 100 | – | > 100 | – | > 100 | – | > 100 | – | > 100 | – | > 100 | – | – |
| CN1CCN(c2ccc3c4c(cccc24)C(=O)N(CCN2CCN(CCCN4CCN(CCN5C(=O)c6cccc7c(N8CCN(C)CC8)ccc(c67)C5=O)CC4)CC2)C3=O)CC1 | 4.57 | 47.5 | 0.861 | 1.89 | 1.49 | 7.15 | 7.37 | 15 | 7.03 | 16.2 | 7.34 | 15.5 | 4.34 | 14.1 | 9.37 | 17.1 | 9.79 | 17.4 | 4.02 | 11.2 |
| COc1ccc(O)c(C(=O)c2ccc(C(=O)O[C@@H]3CCCNC[C@H]3NC(=O)c3ccncc3)cc2)c1F | 0.753 | > 25 | 1.25 | > 25 | 0.753 | 2.34 | 0.592 | > 25 | 1.9 | > 25 | 1.9 | > 25 | 0.8 | > 25 | 2.73 | > 25 | 0.189 | 1.6 | 1.34 | > 25 |
| CCC[C@H](N[C@@H]1CCc2cc(F)cc(F)c2C1)C(=O)Nc1cn(C(C)(C)CNCC(C)(C)C)cn1 | 20.4 | > 100 | 5.98 | 34.8 | 16.3 | 43.4 | 23.2 | > 100 | 26.6 | > 94.6 | 17 | 53.2 | 24.1 | > 88.7 | 15.1 | 33.9 | 7.41 | 42.9 | 24.8 | > 100 |
| CCc1c2c(nc3cc4c(cc13)OCO4)-c1cc3c(c(=O)n1C2)COC(=O)[C@@]3(CC)OC(=O)CN | < 0.01 | – | < 0.01 | 0.154 | < 0.01 | < 0.01 | < 0.01 | 0.149 | < 0.01 | – | < 0.01 | 1.23 | < 0.0143 | 0.309 | 0.101 | – | < 0.0107 | 0.166 | < 0.01 | 0.034 |
| COc1ccc2[nH]cc(-c3nc(-c4cn(C)c5ccncc45)cs3)c2c1 | 1.91 | 3.61 | – | – | 1.9 | 4.12 | 1.79 | 3.43 | 1.79 | 3.57 | 1.71 | 3.22 | 1.87 | 3.52 | 1.79 | 3.22 | 8.86 | 21.5 | 1.64 | 3.08 |
| O=S1(=O)CCN(Cc2ccccn2)CC1 | – | > 100 | – | > 100 | – | – | – | > 100 | – | > 100 | – | > 100 | – | > 100 | – | > 100 | – | > 100 | – | > 100 |
| CC(=O)O[C@@H]1CO[C@H]2O[C@H]3[C@@H](C(C=O)=C[C@H](O)[C@@H]4C5=C(C(C)C)CC[C@]5(C)CC[C@@]34C)[C@@]2(O)C1=O | – | 0.667 | – | 1.6 | – | – | – | 5.57 | – | 1.97 | – | 0.393 | – | 1.46 | – | 0.771 | – | 1.96 | – | 0.448 |
| COc1ccc2c(c1)CC[C@@H]1[C@@H]2CC[C@@]2(C)[C@H]1CC1(CCCCC1)[C@@H]2O | 12 | 26.6 | 2.81 | 9.35 | – | – | 5.58 | 26.8 | 18 | 40.7 | 16.5 | 33.8 | 7.91 | 27.3 | 14.9 | 29.5 | 16.7 | 32 | 20.4 | 39 |
| C=CC1CC12C(=O)C1OC2(C)C2C(=O)c3c(ccc4c3ccc3ccccc34)C(=O)C12 (stereo not given) | 36.2 | > 100 | 12 | > 100 | 31 | > 100 | 95.2 | > 100 | > 100 | > 100 | 41.4 | > 100 | 13.1 | > 100 | 65.3 | > 100 | – | – | 64.3 | > 100 |
| CCN(CC)CCOc1ccc(/C=C2\CC3C4CCC5=CC(=O)CC[C@]5(C)C4CC[C@]3(C)C2=O)cc1OC (stereo not given in full) | 2.34 | 5.62 | 1.79 | 5.03 | – | – | 4.54 | 58.3 | 4.03 | 22.7 | 1.87 | 4 | 1.93 | 3.85 | 2.29 | 5.67 | 1.99 | 8.48 | 2.6 | 7.06 |
| CCN(CC)c1ccc2c(c1)Oc1nc(N)c(C#N)c(N)c1C2Sc1ccc(SC)cc1 (stereo not given) | 1.69 | 3.44 | 2.5 | 6.56 | 1.97 | 5.15 | 1.94 | 3.5 | 1.52 | 2.9 | 1.86 | 3.58 | 1.66 | 3.46 | 2.05 | 3.91 | 1.88 | 3.44 | – | – |
| Nc1cc(-c2ccccc2)ccc1O | 65.5 | > 100 | – | – | 45.4 | > 100 | > 100 | > 100 | > 100 | > 100 | > 100 | > 100 | 58.4 | > 100 | > 100 | > 100 | 22.7 | > 100 | 68.9 | > 100 |
